Experimental data taken from patent US20160102317A1, “PLANTS HAVING INCREASED TOLERANCE TO HERBICIDES” (BASF SE, priority 2013, published 2016).
Values joined by “and” are separate entries in the source; they are usually repeats but may differ in a detail not shown here. Equal values may be shown once.

Tests used:
Assay type in all cases: biochemical
[1] = target: T1, Arabidopsis HPPD (SEQ ID NO:53), wild-type (Arabidopsis thaliana, UniProt P93836); assay: HPPD activity assay (HGA by HPLC), wild-type enzyme characterization
T1 construct: His6 (N); made in house; host or cells: E. coli BL21 (DE3)
T1 sequence (P93836 1-445): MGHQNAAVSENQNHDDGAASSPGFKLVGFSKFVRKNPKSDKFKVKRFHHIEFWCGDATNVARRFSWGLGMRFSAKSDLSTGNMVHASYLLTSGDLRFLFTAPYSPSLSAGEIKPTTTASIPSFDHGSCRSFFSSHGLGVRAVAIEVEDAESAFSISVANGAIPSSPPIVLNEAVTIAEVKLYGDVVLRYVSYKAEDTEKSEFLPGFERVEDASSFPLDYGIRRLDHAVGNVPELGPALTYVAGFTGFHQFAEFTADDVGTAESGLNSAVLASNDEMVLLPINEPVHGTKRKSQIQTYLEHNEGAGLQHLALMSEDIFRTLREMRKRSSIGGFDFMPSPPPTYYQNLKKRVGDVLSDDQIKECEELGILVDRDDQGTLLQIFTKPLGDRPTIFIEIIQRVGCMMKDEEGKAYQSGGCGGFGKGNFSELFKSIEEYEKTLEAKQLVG
Description: (§1) HPPD produces homogentisic acid and CO2 from 4-hydroxyphenylpyruvate (4-HPP) and 02. The activity assay for HPPD is based on the analysis of homogentisic acid by reversed phase HPLC. The assay mixture can contain 150 mM potassium phosphate buffer pH 7.0, 50 mM L-ascorbic acid, 100 μM Catalase (Sigma-Aldrich), 1 μM FeSO4 and 0.2 units of purified HPPD enzyme in a total volume of 505 μl. 1 unit is defined as the amount of enzyme that is required to produce 1 nmol of HGA per minute at 20° C.
(§2) After a preincubation of 30 min the reaction is started by adding 4-HPP to a final concentration of 0.05 mM. The reaction is allowed to proceed for 45 min at room temperature. The reaction is stopped by the addition of 50 μl of 4.5 M phosphoric acid. The sample is filtered using a […] pore size PVDF filtration device.
(§3) 5 μl of the cleared sample is analyzed on an UPLC HSS T3 column (particle size 1.8 μm, dimensions 2.1×50 mm; Waters) by isocratic elution using 90% 20 mM NaH2PO4 pH 2.2, 10% methanol (v/v).
(§4) HGA is detected electrochemically at 750 mV (mode: DC; polarity: positive) and quantified by integrating peak areas (Empower software; Waters).
(§5) Inhibitors are dissolved in DMSO (dimethylsulfoxide) to a concentration of 0.5 mM. From this stock solution serial five-fold dilutions are prepared in DMSO, which are used in the assay. The respective inhibitor solution accounts for 1% of the assay volume. […] Activities are normalized by setting the uninhibited enzyme activity to 100%. IC50 values are calculated using non-linear regression.
Using methods which are described in the above examples or well known in the art, purified, recombinant wild-type HPPD enzymes are characterized with respect to their kinetic properties and sensitivity towards HPPD inhibiting herbicides. Apparent michaelis constants (Km) and maximal reaction velocities (Vmax) are calculated by non-linear regression with the software GraphPad Prism 5 (GraphPad Software, La Jolla, USA) using a substrate inhibition model. […] Weighted means (by standard error) of Km and IC50 values are calculated from at least three independent experiments.
(§6) Field performance of the HPPD enzyme, which is used as a herbicide tolerance trait, may depend not only on its lack of sensitivity towards HPPD inhibiting herbicides but also on its activity. To assess the potential performance of a herbicide tolerance trait a tolerance index (TI) is calculated using the following formula: […]
(§7) Easy comparison and ranking of each trait is enabled by normalizing tolerance indexes on Arabidopsis wild-type HPPD.

[2] = target: T2, Hordeum HPPD (SEQ ID: 2) F404L (Hordeum vulgare, UniProt O48604, A164G/F404L/R146V/R147D/R148G); assay: HPPD activity assay, in vitro characterization of HPPD mutants; details: Table 16, Hordeum wild-type = 1
T2 construct: His (N); made in house; host or cells: E. coli BL21 (DE3)
Description: as §1, §2, §3, §4, §5
(§8) Purified, mutant HPPD enzymes are obtained by the methods described above. Dose response and kinetic measurements are carried out using the described HPPD activity assay. Apparent michaelis constants (Km) and maximal reaction velocities (Vmax) are calculated by non-linear regression with the software GraphPad Prism 5 (Graph Pad Software, La Jolla, USA) using a substrate inhibition model. […] Weighted means (by standard error) of Km and IC50 values are calculated from at least three independent experiments.
as §6, with “of the optimized HPPD enzyme,” for “of the HPPD enzyme,”, “herbicide tolerance trait may depend” for “herbicide tolerance trait, may depend”
as §7

[3] = target: T3, Hordeum HPPD (SEQ ID: 2) L320H (Hordeum vulgare, UniProt O48604, A164G/L320H/R146V/R147D/R148G); assay: as above; details: Table 16, Hordeum wild-type = 1
T3 construct: His (N); made in house; host or cells: E. coli BL21 (DE3)
Description: as §1, §2, §3, §4, §5, §8
as §6, with “of the optimized HPPD enzyme,” for “of the HPPD enzyme,”, “herbicide tolerance trait may depend” for “herbicide tolerance trait, may depend”
as §7

[4] = target: T4, Hordeum HPPD (SEQ ID: 2) L320H, P321A (Hordeum vulgare, UniProt O48604, L320H/P321A); assay: as above; details: Table 16, Hordeum wild-type = 1
T4 construct: His (N); made in house; host or cells: E. coli BL21 (DE3)
Description: as §1, §2, §3, §4, §5, §8
as §6, with “of the optimized HPPD enzyme,” for “of the HPPD enzyme,”, “herbicide tolerance trait may depend” for “herbicide tolerance trait, may depend”
as §7

[5] = target: T5, Hordeum HPPD (SEQ ID: 2) L320Q (Hordeum vulgare, UniProt O48604, A164G/L320Q/R146V/R147D/R148G); assay: as above; details: Table 16, Hordeum wild-type = 1
T5 construct: His (N); made in house; host or cells: E. coli BL21 (DE3)
Description: as §1, §2, §3, §4, §5, §8
as §6, with “of the optimized HPPD enzyme,” for “of the HPPD enzyme,”, “herbicide tolerance trait may depend” for “herbicide tolerance trait, may depend”
as §7

[6] = target: T6, Hordeum HPPD (SEQ ID: 2) L353M, P321R, L320Q (Hordeum vulgare, UniProt O48604, L320Q/L353M/P321R); assay: as above; details: Table 16, Hordeum wild-type = 1
T6 construct: His (N); made in house; host or cells: E. coli BL21 (DE3)
Description: as §1, §2, §3, §4, §5, §8
as §6, with “of the optimized HPPD enzyme,” for “of the HPPD enzyme,”, “herbicide tolerance trait may depend” for “herbicide tolerance trait, may depend”
as §7

[7] = target: T7, Hordeum HPPD (SEQ ID: 2) R309K (Hordeum vulgare, UniProt O48604, A164G/R146V/R147D/R148G/R309K); assay: as above; details: Table 16, Hordeum wild-type = 1
T7 construct: His (N); made in house; host or cells: E. coli BL21 (DE3)
Description: as §1, §2, §3, §4, §5, §8
as §6, with “of the optimized HPPD enzyme,” for “of the HPPD enzyme,”, “herbicide tolerance trait may depend” for “herbicide tolerance trait, may depend”
as §7

[8] = target: T8, Hordeum HPPD (SEQ ID: 2) S252T (Hordeum vulgare, UniProt O48604, A164G/R146V/R147D/R148G/S252T); assay: as above; details: Table 16, Hordeum wild-type = 1
T8 construct: His (N); made in house; host or cells: E. coli BL21 (DE3)
Description: as §1, §2, §3, §4, §5, §8
as §6, with “of the optimized HPPD enzyme,” for “of the HPPD enzyme,”, “herbicide tolerance trait may depend” for “herbicide tolerance trait, may depend”
as §7

T6 sequence (O48604 whole entry R146V/R147D/R148G/A164G/L320Q/P321R/L353M): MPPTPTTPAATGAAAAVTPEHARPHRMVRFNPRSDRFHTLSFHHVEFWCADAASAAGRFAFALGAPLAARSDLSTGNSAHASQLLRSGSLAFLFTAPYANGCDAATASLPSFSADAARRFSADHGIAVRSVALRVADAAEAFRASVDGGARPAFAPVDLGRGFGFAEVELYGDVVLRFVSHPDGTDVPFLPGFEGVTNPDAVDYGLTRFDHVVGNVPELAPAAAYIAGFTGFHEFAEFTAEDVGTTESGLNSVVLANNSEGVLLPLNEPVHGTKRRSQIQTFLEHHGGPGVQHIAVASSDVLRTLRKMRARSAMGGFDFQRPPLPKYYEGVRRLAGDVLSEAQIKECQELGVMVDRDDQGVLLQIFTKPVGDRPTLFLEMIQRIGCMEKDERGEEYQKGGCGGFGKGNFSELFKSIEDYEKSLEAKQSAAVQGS
T2 sequence (O48604 whole entry R146V/R147D/R148G/A164G/F404L): as the sequence (O48604 whole entry R146V/R147D/R148G/A164G/L320Q/P321R/L353M) above, with Q320L, R321P, M353L, F404L counted along it
T4 sequence (O48604 whole entry R146V/R147D/R148G/A164G/L320H/P321A): as the sequence (O48604 whole entry R146V/R147D/R148G/A164G/L320Q/P321R/L353M) above, with Q320H, R321A, M353L counted along it
T7 sequence (O48604 whole entry R146V/R147D/R148G/A164G/R309K): as the sequence (O48604 whole entry R146V/R147D/R148G/A164G/L320Q/P321R/L353M) above, with R309K, Q320L, R321P, M353L counted along it
T8 sequence (O48604 whole entry R146V/R147D/R148G/A164G/S252T): as the sequence (O48604 whole entry R146V/R147D/R148G/A164G/L320Q/P321R/L353M) above, with S252T, Q320L, R321P, M353L counted along it
T5 sequence (O48604 whole entry R146V/R147D/R148G/A164G/L320Q): as the sequence (O48604 whole entry R146V/R147D/R148G/A164G/L320Q/P321R/L353M) above, with R321P, M353L counted along it
T3 sequence (O48604 whole entry R146V/R147D/R148G/A164G/L320H): as the sequence (O48604 whole entry R146V/R147D/R148G/A164G/L320Q/P321R/L353M) above, with Q320H, R321P, M353L counted along it

COc1no[nH]/c1=N/C(=O)c1ccc2c(c1Cl)S(=O)(=O)CCC2(C)C [Inhibitor 1, (NE)-8-chloro-N-(4-methoxy-1,2,5-oxadiazol-3-ylidene)-4,4-dimethyl-1,1-dioxo-2,3-dihydrothiochromene-7-carboxamide]
Ki [1]: 0.019 µM
TI Inhibitor 1 (normalized tolerance index) ([1]; Table 12, Arabidopsis HPPD, normalized to reference SEQ ID NO:53): 1
TI Inhibitor 1 (normalized tolerance index) ([1]; Table 15, Arabidopsis HPPD variant Wild-type): 1
TI Inhibitor 1 (normalized tolerance index) [2]: 2.1
TI Inhibitor 1 (normalized tolerance index) [3]: 0.6
TI Inhibitor 1 (normalized tolerance index) [4]: 0.5
TI Inhibitor 1 (normalized tolerance index) [5]: 0.1
TI Inhibitor 1 (normalized tolerance index) [6]: 1.2
TI Inhibitor 1 (normalized tolerance index) [7]: 0.4
TI Inhibitor 1 (normalized tolerance index) [8]: 2.4

Cc1c(C(=O)Nc2nnnn2C)ccc2c1C(=O)C(C)(C)CS2(=O)=O [Inhibitor 2, 3,3,5-trimethyl-N-(1-methyltetrazol-5-yl)-1,1,4-trioxo-2H-thiochromene-6-carboxamide]
TI Inhibitor 2 (normalized tolerance index) [2]: 3 and 3.1
TI Inhibitor 2 (normalized tolerance index) [3]: 4.4
TI Inhibitor 2 (normalized tolerance index) [4]: 3.6
TI Inhibitor 2 (normalized tolerance index) [5]: 1.4
TI Inhibitor 2 (normalized tolerance index) [6]: 3.5 and 3.4
TI Inhibitor 2 (normalized tolerance index) [7]: 2.8
TI Inhibitor 2 (normalized tolerance index) [8]: 5.9
